Where two headings read alike, the source gives them in different places.
Assays:
[1] = In vitro flags for victim and perpetrator properties conferring DDI liability; format: in vitro ADME, human; conditions: in vitro flag, mainly based on in vitro determinations
[2] = In vivo clearance (CL IV, CL PO, CL renal, fe); conditions: rat, after IV dose
[3] = biological target: T1, UGT1A1 (Homo sapiens, UniProt P22309); experiment: Metabolism by UGT1A1; format: in vitro ADME
T1 sequence (P22309 26-533): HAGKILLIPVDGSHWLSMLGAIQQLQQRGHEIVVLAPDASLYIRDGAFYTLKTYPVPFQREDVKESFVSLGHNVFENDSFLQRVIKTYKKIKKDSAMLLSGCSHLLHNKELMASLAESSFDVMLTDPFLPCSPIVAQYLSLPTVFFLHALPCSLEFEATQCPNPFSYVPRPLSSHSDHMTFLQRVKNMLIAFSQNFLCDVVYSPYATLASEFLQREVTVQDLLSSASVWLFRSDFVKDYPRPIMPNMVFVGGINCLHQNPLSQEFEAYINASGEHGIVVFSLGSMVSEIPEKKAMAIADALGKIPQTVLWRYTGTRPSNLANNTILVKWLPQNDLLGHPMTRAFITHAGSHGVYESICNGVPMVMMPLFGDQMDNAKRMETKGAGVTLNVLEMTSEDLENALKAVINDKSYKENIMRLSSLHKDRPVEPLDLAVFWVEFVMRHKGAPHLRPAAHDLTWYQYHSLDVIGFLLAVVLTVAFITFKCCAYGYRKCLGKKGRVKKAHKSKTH
From the text: (§1) In nearly all cases the fraction of systemic elimination metabolised by a given enzyme (fm) determined in vitro was unavailable in the literature.

[4] = ref McCarthy et al., 2020 47, cited from earlier work; for AUC Obs: 0-inf
[5] = biological target: CYP3A4 (Homo sapiens, UniProt P08684)
CYP3A4, sequence (P08684 whole entry): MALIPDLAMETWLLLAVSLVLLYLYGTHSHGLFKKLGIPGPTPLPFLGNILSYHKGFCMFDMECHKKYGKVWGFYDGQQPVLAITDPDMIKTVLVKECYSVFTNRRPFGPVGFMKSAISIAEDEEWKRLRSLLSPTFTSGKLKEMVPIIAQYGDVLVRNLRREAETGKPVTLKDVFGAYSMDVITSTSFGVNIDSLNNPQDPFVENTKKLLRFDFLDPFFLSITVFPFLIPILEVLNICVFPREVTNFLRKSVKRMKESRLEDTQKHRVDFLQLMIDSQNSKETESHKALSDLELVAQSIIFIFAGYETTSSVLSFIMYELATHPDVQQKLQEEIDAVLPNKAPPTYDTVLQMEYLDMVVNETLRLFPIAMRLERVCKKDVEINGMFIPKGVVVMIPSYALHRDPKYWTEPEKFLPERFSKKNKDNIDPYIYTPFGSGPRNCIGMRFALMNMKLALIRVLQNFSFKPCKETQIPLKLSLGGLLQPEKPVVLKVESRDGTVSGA
From the text: as §1

[6] = clinically observed oral (in vivo) clearance; pyronaridine: blood; ref amodiaquine Winstanley et al., 1987 9; DEAQ Akande et al., 2015 8, Scarsi et al., 2014 35, Tarning et al., 2012 36, Orrell et al., 2008 37; DHA Na-Bangchang et al., 2004 42; lumefantrine Lefevre et al., 2002 52, Hoglund et al., 2015 53; mefloquine Charles et al., 2007 56; proguanil Jeppesen et al., 1997 34; pyronaridine Jittama; cited from earlier work
[7] = in vitro; conditions: human, Caco-2
[8] = Fraction unbound in plasma (fu), main binding protein; conditions: PBPK input; unpublished (in-house) data
[9] = Blood to plasma ratio (B:P); conditions: PBPK input; unpublished (in-house) data

dose recovered in urine [2]: 0.2 % of dose
CLint UGT1A1 ([3]; Derived from CL PO using retrograde calculations): 1.13 µL/min/pmol
fm UGT1A1 ([3]; allocation of clearance, based on in vitro data): 90%
fm by UGT1A1 ([3]; fraction metabolized): 0.9
fmCYP3A4 [5]: 10%
CLint CYP3A4 ([5]; microsomes): 0.13 µL/min/pmol
Papp A→B [7]: 44 ×10⁻⁶ cm/s
fu [8]: 0.145
B:P [9]: 0.9
SMILES: CS(=O)(=O)c1ccc(-c2cnc(N)c(-c3ccc(C(F)(F)F)nc3)c2)cc1 [MMV048]
Risk as a perpetrator [1]: No risk has been identified as a perpetrator
AUC Obs ([4]; 40 mg SD): 30320 ng·h/mL
Cmax Obs ([4]; 40 mg SD): 272.7 ng/mL
AUC Obs ([4]; 80 mg SD): 82680 ng·h/mL
Cmax Obs ([4]; 80 mg SD): 561.0 ng/mL
AUC Obs ([4]; 120 mg SD): 137800 ng·h/mL
Cmax Obs ([4]; 120 mg SD): 1094.0 ng/mL
CL PO [6]: 0.82 L/h
